Test results as given in article PMC3199867, “Targeting surface nucleolin with multivalent HB-19 and related Nucant pseudopeptides results in distinct inhibitory mechanisms depending on the malignant tumor cell type” (BMC Cancer, 2011).
Where no end group is shown, it is not given here.

Columns and labels:
HuT 78 = experiment: Cell death (trypan blue uptake); type: cell-based, human; settings: HuT 78 cells, 15 μM, after 24 of culture
Experimental: Human breast (MDA-MB-231, MDA-MB-435 [37]), prostate (LNCaP, from American Type Culture Collection, ATCC, Rockville, MD), and cervical (HeLa) epithelial cancer cells were grown in DMEM-glutamax medium (Gibco Invitrogen, Cergy-Pontoise, France) containing GlutaMAX™, 4.5 g/l glucose and supplemented with 10% heat-inactivated (56°C for 30 min) fetal bovine serum (FBS; Hyclone, Thermo Fisher Scientific, Inc). Human SW480 cells are derived from a grade 3-4 colon carcinoma, while the highly metastatic counterpart SW620 is established from the lymph node of a person. Both SW480 and SW620 cells (obtained from Francis Raul, IRCAD) are highly tumorigenic in nude mice. They were cultured in D-MEM, 10% FCS. The murine melanoma TIII cell line was obtained from Armelle Prévost-Blondel. Murine T29 lymphoma cells, obtained from Philippe Kastner (CNRS, Strasbourg), have been established from Ik^L/L tumors from mice carrying a hypomorphic mutation (Ik^L/L) in the Ikaros gene encoding a transcription factor that regulates lymphocyte differentiation, and acts also as a tumor suppressor in T lymphocytes. The T29 cells were cultured in RPMI medium containing 25 mM Hepes pH 7.6, 1 mM sodium pyruvate, and 10% FCS. Human leukemia cell lines, Jurkat (acute T cell leukemia), HuT 78 (cutaneous T lymphocyte), RAJI (Burkitt lymphoma), and HL60 (promyelocytic leukemia) were cultured in RPMI-1640 medium (Gibco) containing GlutaMAX™, and supplemented with 10% heat-inactivated FBS as described before. The wild-type Chinese hamster ovary cell line (CHO K1) was purchased from American Type Culture Collection (ATCC; Rockville, MD). The CHO LRP1-null cell line (CHO-13-5-1) was kindly provided by D. Strickland [47]. They were cultured in Ham's F12K medium. All cells were cultured with 10% (v/v) heat inactivated (56°C, 30 min) fetal bovine serum (FBS) (Roche Molecular Biochemicals, Indianapolis, IN) and 50 international units/mL penicillin-streptomycin (Invitrogen). Cell death was monitored conveniently by uptake of the trypan blue dye due to plasma membrane permeability of dying and/or dead cells. […]

HuT 78 cells = experiment: Cell entry and localization of biotinylated pseudopeptides, immunofluorescence; type: cell-based, human; settings: HuT 78, 15 μM, 37°C, 5 hours, PFA/Triton fixation, anti-biotin immunofluorescence
Experimental: Figure 8 Nucant pseudopeptides are internalized into cells and accumulate in the cytoplasm without translocation to the nucleus. […] C. […] The nuclei stained with DAPI are shown on the right of each panel. Treatment of HuT 78 cells at 15 μM of biotinylated N3 or N7 leads to 25 and 40% cell death after 24 of culture, respectively.

surface nucleolin [1] = experiment: Binding of biotinylated Nucant to surface nucleolin on MDA-MB 231 cells (avidin recovery, immunoblotting); parameters: species or system human; settings: data not presented
Experimental: (§1) Two days after seeding, subconfluent cells (about 5 × 10^6 cells/75 cm^2 flask) were incubated (45 min, 20°C) with 5 μM of HB-19/Btn. After washing extensively in PBS containing 1 mM EDTA (PBS-EDTA), nucleus-free cell extracts were prepared in lysis buffer E. The complex formed between cell-surface expressed nucleolin and HB-19/Btn was isolated by purification of the extracts using NeutrAvidin agarose (100 μl; Pierce Biotechnology) in PBS-EDTA. After 3 hours at 6°C, the avidin-agarose samples were washed extensively with PBS-EDTA. The purified surface nucleolin was eluted in the electrophoresis sample buffer containing SDS and analyzed by 10% SDS-polyacrylamide gel electrophoresis (SDS-PAGE). […] All cells investigated in this study (MDA-MB-231, MDA-MB-435, LNCaP, HeLa, SW480, SW620, and T29) expressed the cell surface nucleolin assayed by this procedure.
(§2) Figure 9 Nucant pseudopeptides bind surface nucleolin at a higher affinity compared to binding to nucleophosmin. A. Recovery of surface nucleolin and associated proteins by using biotinylated Nucant. […] Purified material was then analyzed by SDS-PAGE and stained with Brilliant Blue G-Colloidal Concentrate staining (panel Staining). Similar samples were also analyzed by immunoblotting using anti-nucleolin mAb D3 (panel anti-nucleolin) or anti-nucleophosmin mAb EP1848Y (panel anti-nucleophosmin)(Methods). […]

nucleophosmin = experiment: Binding of biotinylated Nucant to nucleophosmin on HuT 78 cells (avidin recovery, immunoblotting); parameters: species or system human; settings: HuT 78 cells, 0, 1, 2, 4, 8 μM
Experimental: as §1, §2

surface nucleolin [2] = experiment: Binding of biotinylated Nucant to surface nucleolin on HuT 78 cells (avidin recovery, immunoblotting); parameters: species or system human; settings: HuT 78 cells, 0, 1, 2, 4, 8 μM
Experimental: as §1, §2

biotinylated N7: biotinylated hexavalent N7 pseudopeptide (chain 1 KAKPGKAKPGKAKPG; chain 2 Lys-Pro-Arg; also: biotinylated (site not given here), hexavalent branched pseudopeptide, linkage not given here)
cell death (HuT 78): 40% | cell entry / intracellular localization (HuT 78 cells): most of the signal is located in the cytoplasm, with almost no signal in the nuclei | concentration of maximum binding to surface nucleolin (surface nucleolin [1]): 3 µM | concentration at which nucleophosmin binding occurs (nucleophosmin): 8 µM | concentration of maximum binding to surface nucleolin (surface nucleolin [2]): 4 µM
